Laboratory results from patent EP0880540B1, “17-BETA-CYCLOPROPYL(AMINO/OXY) 4-AZA STEROIDS AS ACTIVE INHIBITORS OF TESTOSTERONE 5-ALPHA-REDUCTASE AND C17-20-LYASE” (Aventis Pharmaceuticals Inc., priority 1996, dated 1997).

Columns and labels:
[1] = molecular target: T1, cynomolgus monkey C17,20 lyase (Macaca fascicularis, UniProt Q2XVA1); experiment: In vitro C17,20 lyase assay, testicular microsomes; assay type: biochemical; conditions: mean of duplicates
T1 construct: microsomal preparations of the enzyme from testicular tissue; from tissue; host or cells: cynomolgus monkey testes, microsomes
T1 sequence (Q2XVA1 1-508): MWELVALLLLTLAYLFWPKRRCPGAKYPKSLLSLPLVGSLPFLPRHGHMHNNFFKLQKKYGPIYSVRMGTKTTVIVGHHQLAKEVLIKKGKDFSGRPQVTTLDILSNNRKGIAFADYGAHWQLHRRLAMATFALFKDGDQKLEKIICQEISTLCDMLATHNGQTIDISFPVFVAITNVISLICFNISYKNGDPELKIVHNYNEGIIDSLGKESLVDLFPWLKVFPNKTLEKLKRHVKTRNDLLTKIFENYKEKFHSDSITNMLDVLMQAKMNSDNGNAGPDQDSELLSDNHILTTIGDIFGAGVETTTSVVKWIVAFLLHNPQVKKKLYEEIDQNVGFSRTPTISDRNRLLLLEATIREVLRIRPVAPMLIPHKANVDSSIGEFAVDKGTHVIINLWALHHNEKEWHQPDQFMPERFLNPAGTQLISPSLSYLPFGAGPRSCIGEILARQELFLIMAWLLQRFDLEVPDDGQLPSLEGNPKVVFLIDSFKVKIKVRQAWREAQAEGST
Procedure: In vitro C17,20 lyase assays: Compounds were tested for inhibition of cynomolgus monkey C17,20 lyase in vitro using microsomal preparations of the enzyme from testicular tissue. Testes were removed from anesthetized animals and flash frozen in liquid nitrogen. Microsomes were isolated as described in Schatzman et al., Anal. Biochem. 175, 219-226 (1988). The compound to be tested was dissolved in dimethyl sulfoxide and diluted in 0.05 M potassium phosphate buffer, pH 7.4, to give the desired concentrations of test compound, in an amount which contributed 0.1% v/v DMSO to the total assay volume. Assays contained 0.05 M potassium phosphate buffer, pH 7.4, an NADPH regenerating system (1 mM NADPH, 5 mM glucose-6-phosphate, 1 IU/mL glucose-6-phosphate dehydrogenase), test compound, substrate and microsomal protein in a total volume of 0.2 mL. Control assays contained all components, including dimethyl sulfoxide, but not test ccmpound. All assays were performed in duplicate. The test compound was incubated with 20 to 62 µg/mL microsomal protein, buffer, and the NADPH regenerating system described above at 34°C for 0 or 40 minutes. Aliquots of 180 µL were then removed and assayed for enzyme activity by addition to 7-[^3H]-17α-hydroxypregnenolone (11.2 mCi/mmole; 0.2 µCi per assay) plus unlabeled 17α-hydroxypregnenolone dissolved in DMSO, contributing 2.5% v/v to the final assay mix, and phosphate buffer to give a total substrate concentration of 0.05 µM (=Km) per assay and subsequent incubation at 34°C for 6 minutes. Each assay was terminated by addition of 5 mL of chloroform:methanol (2:1). Carrier steroids representing substrates and produces (17α-hydroxypregnenolone, dehydroepiandrosterone, and androst-5-ene-3β,17β-diol) and 0.8 mL of distilled, deionized water were also added at this time. The steroids were extracted by the method of Moore and Wilson (Methods in Enzymol., eds. O. Malley, B.W. and Hardman, J.G. 36, 1975, pp. 466-474). The organic phase containing the steroids was evaporated using nitrogen gas, the residues dissolved in 18% tetrahydrofuran (v/v) in hexane, and the steroids were separated by HPLC on a Si60 (5 µm) column (250 x 4 mm) using a gradient of 18-22% tetrahydrofuran (v/v) in hexane. Radioactivity in the steroid peaks was measured using a Radiomatic® Model ES or Model A515 Flo-One® detector.
The enzyme activity for each assay was calculated from the percent conversion of substrate to products, and the results were expressed as percent inhibition of control. The following results were obtained, wherein the values indicated are the mean of duplicate determinations: Table 1: […]

PC-82 Human Tumor = experiment: PC-82 human tumor growth in nude mice; assay type: in vivo, male nude mice; conditions: MDL 103432 and MDL 105831 50 mg/kg B.I.D., MDL 15910 15 mg/kg B.I.D., per os; for Tumor Growth in PC-82 Human Tumor in Male Nude Mice, Day 7 / Tumor Growth in PC-82 Human Tumor in Male Nude Mice, Day 15 / Tumor Growth in PC-82 Human Tumor in Male Nude Mice, Day 21 / Tumor Growth in PC-82 Human Tumor in Male Nude Mice, Day 28 / Tumor Growth in PC-82 Human Tumor in Male Nude Mice, Day 35 / Tumor Growth in PC-82 Human Tumor in Male Nude Mice, Day -4: corrected group mean; for Tumor Growth in PC-82 Human Tumor in Male Nude Mice, Day -4: Day -4 (before treatment); for Δv/Δt (day 35-day 7): average tumor growth over 28 days from corrected group means
Text: As described in van Steenbrugge, G.J. et al., J. Urol 131: 812-817 (1984) van Steenbrugge G.J. et al., The Prostate 11: 195-210 (1987) and Redding, T.W. et al., Cancer Research 52, 2538-2544 (1992), male nude mice (Hsd:athymic, Nude-nu) were obtained from Harlan Sprague Dawley. Mice were housed in sterilized micro-isolators and fed autoclaved ABLE® rodent chow (Purina Mills Inc., St. Louis, MO) and deionized water, adlibitum. Tumor-donating mice were first anesthetized using sodium pentobarbital and then sacrificed by cervical dislocation. The tumor was subsequently excised and placed in a petri dish containing ice-cold Hanks balanced salt solution. Tumors were cut into 2-3 mm cubes for implantation. Recipient animals were first anesthetized with 50 mg/kg pentobarbital, then implanted, by use of a trocar, with tumor fragments (one per mouse) in the dorsal area. Animals were separated into two control groups, one with vehicle alone and the other castrated, and the treatment groups, where n is the number of animals in each group.
Animals were selected for treatment groups based on tumor size. Each test compound was prepared as a solution or suspension in a lecithin vehicle (L-α-phosphatidylcholine type XV-E) containing methylparaben and propylparaben at a dose volume of 10 cc/kg. Animals were treated for 42 days by oral gavage (per os) seven days per week. Twenty-four hours after the last treatment the animals were euthenized by CO2 and tumors were removed and weighed. During the study period, mice were weighed and palpated weekly for tumors. In Table 5, average tumor growth is determined from the corrected group means over a 28 day period after treatment was started. […] The following animal data was deleted before computation of the corrected mean data in Table 5, Fig. 1: animals 4 and 44; Fig. 2: animals 10, 38 and 42; Fig. 3: Animal 39; Fig. 4: Animals 8, 9 and 49; Fig. 5: Animals 37 and 40 and 41.
Table 5 illustrates the average tumor growth in animals treated with 4-aza-17β-(cyclopropyloxy)-5α-androstan-3-one (MDL 103432; 50 mg/kg B.I.D.) 4-aza-17β-(cyclopropylamino)-androst-5(6)-en-3-one (MDL 105831; 50 mg/kg B.I.D.) and flutamide (MDL 15,910; 15 mg/kg B.I.D.), a known androgen receptor antagonist. The average growth rate of each tested compound relative to the vehicle and castrated controls is consistent with the in vivo inhibition of androgens.

Row | Compound | inhibition at 0.1 µM ([1]; preincubation 0 min) [%] | inhibition at 0.1 µM ([1]; preincubation 40 min) [%] | inhibition at 1 µM ([1]; preincubation 0 min) [%] | inhibition at 1 µM ([1]; preincubation 40 min) [%] | inhibition at 10 µM ([1]; preincubation 0 min) [%] | inhibition at 10 µM ([1]; preincubation 40 min) [%] | Tumor Growth in PC-82 Human Tumor in Male Nude Mice, Day 7 (PC-82 Human Tumor) [mm^3] | Tumor Growth in PC-82 Human Tumor in Male Nude Mice, Day 15 (PC-82 Human Tumor) | Tumor Growth in PC-82 Human Tumor in Male Nude Mice, Day 21 (PC-82 Human Tumor) [mm^3] | Tumor Growth in PC-82 Human Tumor in Male Nude Mice, Day 28 (PC-82 Human Tumor) [mm^3] | Tumor Growth in PC-82 Human Tumor in Male Nude Mice, Day 35 (PC-82 Human Tumor) [mm^3] | Tumor Growth in PC-82 Human Tumor in Male Nude Mice, Day -4 (PC-82 Human Tumor) [mm^3] | Δv/Δt (day 35-day 7) (PC-82 Human Tumor) [mm^3/day]
1 | C[C@]12CC[C@H]3[C@@H](CC=C4NC(=O)CC[C@@]43C)[C@@H]1CC[C@@H]2NC1CC1 [MDL 105,831, 17β-Cyclopropylamino-4-aza-androst-5-en-3-one] | 11.4 | 24.6 | 26 | 53.8 | 69.6 | 100 | 188.3 | 254.3 mm^3 | 304.3 | 530.7 | 531.1 | 124.9 | 12.24
2 | CC12CCC3C(CC[C@H]4NC(=O)CCC34C)C1CC[C@@H]2OC1CC1 (stereo partly drawn) [MDL 103,432, 17β-Cyclopropyloxy-4-aza-5α-androstan-3-one] | 23.4 | 20.2 | 33 | 54.2 | 68.3 | 80.2 | 180.2 | 220,2 mm^3 | 288.2 | 385.9 | 427.4 | 122.2 | 8.83
